From patent US20080132505A1 (Glaxo Group Limited, priority 2004, published 2008)
pEC50: −log10 of the molar value. Structures can show the parent of a compound that is named as a salt. Where two headings read alike, the source gives them in different places.

Molecular target: human cannabinoid CB2 receptor (Homo sapiens, UniProt P34972)
Assay: Cannabinoid CB2 receptor agonist activity (yeast reporter assay, FDGlu fluorescence)
Assay type: cell-based
Conditions: for Emax: read-out: efficacy value (Emax relative to HU210) at the cloned human cannabinoid CB2 receptor
Procedure: Determination of Cannabinoid CB2 Receptor Agonist Activity
The cannabinoid CB2 receptor agonist activity of the compounds of formula (I)-(IV) was determined in accordance with the following experimental method.
Yeast (Saccharomyces cerevisiae) cells expressing the human cannabinoid CB2 receptor were generated by integration of an expression cassette into the ura3 chromosomal locus of yeast strain MMY23. This cassette consisted of DNA sequence encoding the human CB2 receptor flanked by the yeast GPD promoter to the 5′ end of CB2 and a yeast transcriptional terminator sequence to the 3′ end of CB2. MMY23 expresses a yeast/mammalian chimeric G-protein alpha subunit in which the C-terminal 5 amino acids of Gpa1 are replaced with the C-terminal 5 amino acids of human Gαi3 (as described in Brown et al. (2000), Yeast 16:11-22). Cells were grown at 30° C. in liquid Synthetic Complete (SC) yeast media (Guthrie and Fink (1991), Methods in Enzymology, Vol. 194) lacking uracil, tryptophan, adenine and leucine to late logarithmic phase (approximately 6 OD600/ml).
Agonists were prepared as 10 mM stocks in DMSO. […] Agonist solutions in DMSO (1% final assay volume) were transferred into black, clear bottom, microtitre plates from NUNC (96- or 384-well). Cells were suspended at a density of 0.2 OD600/ml in SC media lacking histidine, uracil, tryptophan, adenine and leucine and supplemented with 10 mM 3-aminotriazole, 0.1M sodium phosphate pH 7.0, and […] fluorescein di-β-D-glucopyranoside (FDGlu). This mixture (50 ul per well for 384-well plates, 200 ul per well for 96-well plates) was added to agonist in the assay plates (Multidrop 384, Labsystems). After incubation at 30° C. for 24 hours, fluorescence resulting from degradation of FDGlu to fluorescein due to exoglucanase, an endogenous yeast enzyme produced during agonist-stimulated cell growth, was determined using a Spectrofluor microtitre plate reader (Tecan; excitation wavelength: 485 nm; emission wavelength: 535 nm). Fluorescence was plotted against compound concentration and iteratively curve fitted using a four parameter fit to generate a concentration effect value. Efficacy (Emax) was calculated from the equation
where Max[compound X] and Min[compound X] are the fitted maximum and minimum respectively from the concentration effect curve for compound X, and Max[HU210] and Min[HU210] are the fitted maximum and minimum respectively from the concentration effect curve for (6aR,10aR)-3-(1,1′-Dimethylheptyl)-6a,7,10,10a-tetrahydro-1-hydroxy-6,6-dimethyl-6H-dibenzo[b,d]pyran-9-methanol (HU210; available from Tocris). Equieffective molar ratio (EMR) values were calculated from the equation
Where EC50 [compound X] is the EC50 of compound X and EC50 [HU210] is the EC50 of HU210.

[1] = EC50 value at the cloned human cannabinoid CB2 receptor

Sequence of human cannabinoid CB2 receptor (P34972 whole entry): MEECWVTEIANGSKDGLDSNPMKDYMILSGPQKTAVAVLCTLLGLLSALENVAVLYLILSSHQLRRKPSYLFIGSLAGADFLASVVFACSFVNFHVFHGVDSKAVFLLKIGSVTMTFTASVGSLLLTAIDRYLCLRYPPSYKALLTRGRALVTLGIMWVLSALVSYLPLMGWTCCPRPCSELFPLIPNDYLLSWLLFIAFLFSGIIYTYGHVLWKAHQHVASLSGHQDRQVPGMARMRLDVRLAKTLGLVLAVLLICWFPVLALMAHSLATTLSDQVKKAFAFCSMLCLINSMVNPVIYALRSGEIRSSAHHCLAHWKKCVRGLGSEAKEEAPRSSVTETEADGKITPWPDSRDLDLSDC

SMILES	pEC50 [1]	Emax [%]	pEC50 (read-out: EC50 value at the cloned human cannabinoid CB2 receptor)
O=C(NCc1ccc(F)cc1)c1cnc(Nc2cc(Cl)ccc2Cl)nc1C(F)(F)F [Example 366, 2-(2,5-Dichloro-phenylamino)-4-trifluoromethyl-pyrimidine-5-carboxylic acid 4-fluoro-benzylamide]	6.52 to 7.70		
CC(C)(C)CCNC(=O)c1cnc(Nc2cccc(Cl)c2)nc1C(F)(F)F [Example 27, 2-(3-Chloro-phenylamino)-4-trifluoromethyl-pyrimidine-5-carboxylic acid (3,3-dimethyl-butyl)-amide]	6.00 to 6.52	> 50	
COc1cc(Nc2ncc(C(=O)NCC3CCOCC3)c(C(F)(F)F)n2)cc(C(F)(F)F)c1 [Example 177, 2-(3-Methoxy-5-(trifluoromethyl)phenylamino)-4-trifluoromethyl-pyrimidine-5-carboxylic acid (tetrahydropyran-4-ylmethyl)-amide]	6.52 to 7.70	> 50	
N#CCNC(=O)c1cnc(Nc2cccc(Cl)c2)nc1C(F)(F)F [Example 26, 2-(3-Chloro-phenylamino)-4-trifluoromethyl-pyrimidine-5-carboxylic acid cyanomethyl-amide]	6.00 to 6.52	> 50	
O=C(NCc1ccc(F)cc1)c1cnc(Nc2cccc(Cl)c2F)nc1C(F)(F)F [Example 348, 2-(3-Chloro-2-fluoro-phenylamino)-4-trifluoromethyl-pyrimidine-5-carboxylic acid 4-fluoro-benzylamide]	6.52 to 7.70		
O=C(NCc1ccc(F)cc1)c1cnc(Nc2cc(Cl)cc(Cl)c2)nc1C(F)(F)F [Example 290, 2-(3,5-Dichlorophenylamino)-4-trifluoromethylpyrimidine-5-carboxylic acid 4-fluorobenzyl-amide]	6.52 to 7.70		
O=C(NCc1ccnc(F)c1)c1cnc(Nc2cc(Cl)cc(Cl)c2)nc1C(F)(F)F [Example 356, 2-(3,5-Dichloro-phenylamino)-4-trifluoromethyl-pyrimidine-5-carboxylic acid (2-fluoro-pyridin-4-ylmethyl)-amide]	6.52 to 7.70		
Cc1cc(CNC(=O)c2cnc(Nc3cccc(Cl)c3)nc2C(F)(F)F)ccn1 [Example 293, 2-(3-Chloro-phenylamino)-4-trifluoromethyl-pyrimidine-5-carboxylic acid (2-methyl-pyridin-4-ylmethyl)-amide hydrochloride]	6.52 to 7.70		
O=C(NC1CCC1)c1cnc(Nc2c(Cl)cccc2Cl)nc1C(F)(F)F [Example 51, 2-(2,6-Dichlorophenylamino)-4-trifluoromethylpyrimidine-5-carboxylic acid N-cyclobutylamide]	6.52 to 7.70	> 50	
O=C(NCc1ccccc1)c1cnc(Nc2cccc(Cl)c2Cl)nc1C(F)(F)F [Example 300, 2-(2,3-Dichloro-phenylamino)-4-trifluoromethyl-pyrimidine-5-carboxylic acid benzylamide]	6.00 to 6.52	> 50	
O=C(NCc1ccncc1)c1cnc(Nc2cccc(Cl)c2Cl)nc1C(F)(F)F [Example 281, 2-(2,3-Dichlorophenylamino)-4-trifluoromethylpyrimidine-5-carboxylic acid (pyridin-4-ylmethyl)amide]	6.52 to 7.70		
O=C(NCC1CCCC1)c1cnc(Nc2ccc(C(F)(F)F)c(F)c2)nc1C(F)(F)F [Example 97, 2-(4-Trifluoromethyl-3-fluorophenylamino)-4-trifluoromethyl-pyrimidine-5-carboxylic acid cyclopentylmethyl-amide]			6.00 to 6.52
O=C(NCC1CCSCC1)c1cnc(Nc2cccc(Cl)c2)nc1C(F)(F)F [Example 255, 2-(3-Chlorophenylamino)-4-trifluoromethyl-pyrimidine-5-carboxylic acid (tetrahydrothiopyran-4-ylmethyl) amide]	6.52 to 7.70	> 50	
Cc1ccc(Cl)cc1Nc1ncc(C(=O)NCC2CCOCC2)c(C(F)(F)F)n1 [Example 108, 2-(5-Chloro-2-methyl-phenylamino)-4-tri-fluoromethyl-pyrimidine-5-carboxylic acid (tetrahydropyran-4-ylmethyl)-amide]	6.00 to 6.52	> 50	
O=C(NCc1ccc(F)cc1)c1cnc(Nc2cc(F)cc(F)c2)nc1C(F)(F)F [Example 350, 2-(3,5-Difluoro-phenylamino)-4-trifluoromethyl-pyrimidine-5-carboxylic acid 4-fluoro-benzylamide]	6.52 to 7.70		
O=C(NCC1CCCCC1)c1cnc(Nc2ccc(F)c(Cl)c2)nc1C(F)(F)F [Example 166, 2-(3-Chloro-4-fluorophenylamino)-4-trifluoromethyl-pyrimidine-5-carboxylic acid cyclohexylmethyl-amide]	6.52 to 7.70	> 50	
O=C(NCc1ccncc1)c1cnc(Nc2cccc(F)c2)nc1C(F)(F)F [Example 285, 2-(3-Fluorophenylamino)-4-trifluoromethylpyrimidine-5-carboxylic acid (pyridin-4-ylmethyl)amide]	6.52 to 7.70		
CC(C)c1cc(Nc2ccc(C#N)cc2F)ncc1C(=O)NCC1CCCC1 [Example 751, 6-(4-Cyano-2-fluoro-phenylamino)-N-cyclopentylmethyl-4-isopropyl-nicotinamide]		> 50	
O=C(NCC1CCCC1)c1cnc(Nc2ccc(Cl)cc2Cl)nc1C(F)(F)F [Example 41, 2-(2,4-Dichlorophenylamino)-4-trifluoromethylpyrimidine-5-carboxylic acid cyclopentylmethyl-amide]	6.52 to 7.70	> 50	
COc1cccc(Nc2ncc(C(=O)N(C)Cc3ccccc3)c(C(F)(F)F)n2)c1 [Example 297, 2-(3-Methoxy-phenylamino)-4-trifluoromethyl-pyrimidine-5-carboxylic acid N-benzyl-N-methyl-amide]	6.00 to 6.52	> 50	
Cc1ccc(Cl)cc1Nc1ncc(C(=O)NCC2CCC2)c(C(F)(F)F)n1 [Example 259, 2-(5-Chloro-2-methylphenylamino)-4-trifluoromethyl-pyrimidine-5-carboxylic acid cyclobutylmethyl-amide]	6.00 to 6.52	> 50	
O=C(NCC1CCOCC1)c1cnc(Nc2cc(C(F)(F)F)cc(C(F)(F)F)c2)nc1C(F)(F)F [Example 178, 2-(3,5-Bis-trifluoromethylphenylamino)-4-trifluoromethyl-pyrimidine-5-carboxylic acid (tetrahydropyran-4-ylmethyl)-amide]	6.52 to 7.70	> 50	
N#Cc1cccc(Nc2ncc(C(=O)NCC3CCOCC3)c(C(F)(F)F)n2)c1 [Example 172, 2-(3-Cyanophenylamino)-4-trifluoromethyl-pyrimidine-5-carboxylic acid (tetrahydropyran-4-ylmethyl)-amide]	6.52 to 7.70	> 50	
O=C(c1cnc(Nc2cccc(Br)c2)nc1C(F)(F)F)N1CCCCC1 [Example 12]		> 50	
O=C(NCC1CCOCC1)c1cnc(Nc2cccc(Cl)c2Cl)nc1C(F)(F)F [Example 33, 2-(2,3-Dichlorophenylamino)-4-trifluoromethylpyrimidine-5-carboxylic acid (tetrahydropyran-4-ylmethyl)amide]	6.52 to 7.70	> 50	
O=C(NCc1ccncc1)c1cnc(Nc2ccc(Cl)c(Cl)c2)nc1C(F)(F)F [Example 283, 2-(3,4-Dichlorophenylamino)-4-trifluoromethylpyrimidine-5-carboxylic acid (pyridin-4-ylmethyl)amide]	6.52 to 7.70		
O=C(NCC1CCCCC1)c1cnc(Nc2cccc(F)c2F)nc1C(F)(F)F [Example 242, 2-(2,3-Difluorophenylamino)-4-trifluoromethyl-pyrimidine-5-carboxylic acid cyclohexylmethyl-amide]	6.52 to 7.70	> 50	
O=C(NCC1CCOCC1)c1cnc(Nc2cc(Cl)cc(Cl)c2)nc1C(F)(F)F [Example 36, 2-(3,5-Dichlorophenylamino)-4-trifluoromethylpyrimidine-5-carboxylic acid (tetrahydropyran-4-ylmethyl)-amide]	6.52 to 7.70	> 50	
O=C(c1cnc(Nc2cc(Cl)cc(Cl)c2)nc1C(F)(F)F)N1CCOCC1 [Example 13, 1-[2-(3,5-Dichlorophenylamino)-4-trifluoromethylpyrimidin-5-yl]-1-morpholin-4-yl-methanone]	6.52 to 7.70	> 50	
